# In patent US5262417A, “Antibacterial quinolone compounds” (The Upjohn Company, priority 1991, dated 1993):
# Experiments:
# Format in all cases: cell-based
# [1] = test system: Escherichia coli UC 51 (EC); experiment: Dip disk (disk-diffusion) assay, disks loaded with 0.05 ml; conditions: 0.05 ml per disk; for Growth Inhibition Zone, EC: 0.1 mcg/ml; for zone of inhibition at 1 µg/mL: Escherichia coli, UC51, 1.0 mcg/ml, read-out: Growth Inhibition zone, EC
# Description: (§1) The effectiveness of the subject compounds on bacteria were obtained by performing a dip disk assay. The antibacterial activity of the compounds was determined by the disk-diffusion method. Paper disks (12.7 mm) were loaded with 0.05 ml of drug solution prepared at a concentration of 0.1 mcg/ml; the disks were allowed to air dry. They were then applied to the surface of microorganism-seeded agar assay trays, which contained the bacterial strain Pseudomonas aeruginosa UC 95 (PA), Escherichia coli UC 51 (EC), Klebsiella pneumoniae UC 57 (KP), or Staphylococcus aureus UC 80 (SA). The assay trays were incubated overnight under aerobic condition to allow for the growth of the organisms. Zones of growth inhibition due to the action of the antibiotic were then measured to the nearest millimeter.
# (§2) The effectiveness of additional compounds 5-9, (5-7 are Formula IAa compounds and 8 and 9 are Formula IAb compounds) on bacteria were obtained by performing a dip disk assay as described above. The antibacterial activity of the compounds was determined by the disk-diffusion method where the disks were loaded with 0.05 ml of drug solution prepared at a concentration of 1.0 mcg/ml; the disks were allowed to air dry.
# [2] = test system: Pseudomonas aeruginosa UC 95 (PA); experiment: as above; conditions: 0.05 ml per disk; for Growth Inhibition zone, PA: 0.1 mcg/ml; for zone of inhibition at 1 µg/mL: Pseudomonas aeruginosa, UC95, 1.0 mcg/ml, read-out: Growth Inhibition zone, PA
# Description: as §1, §2
# [3] = test system: Staphylococcus aureus UC 80 (SA); experiment: as above; conditions: 0.05 ml per disk; for Growth Inhibition Zone, SA: 0.1 mcg/ml; for zone of inhibition at 1 µg/mL: Staphylococcus aureus, UC80, 1.0 mcg/ml, read-out: Growth Inhibition zone, SA
# Description: as §1, §2
# [4] = test system: Gram-positive and Gram-negative bacteria; experiment: Dipped disk assay, overall antibacterial activity (Formula IB)
# Description: (§3) The effectiveness of the subject compounds on some bacteria were obtained by performing a dipped disk assay. The antibacterial activity of the compounds is determined by the disk-diffusion method. Paper disks (12.7 mm) were loaded with 0.10 ml of drug solution prepared at a concentration of 1 and 0.1 mcg/ml; the disks were allowed to air dry. They were then applied to the surface of microorganism-seeded agar assay trays, which contained the bacterial strain Pseudomonas aeruginosa UC 95 )PA), Escherichia coli UC 51 (EC) or Staphylococcus aureus UC 80 (SA). The assay trays were incubated overnight under aerobic condition to allow for the growth of the organisms. Zones of growth inhibition due to the action of the antibiotic were then measured to the nearest millimeter.
# [5] = test system: Pseudomonas aeruginosa UC 95 (PA); experiment: Dipped disk (disk-diffusion) assay, disks loaded with 0.10 ml; conditions: Conc 0.1 mg/ml, 0.10 ml per disk
# Description: as §3, with “Paper disks (12.7 mm) were loaded with 0.10 ml of drug solution prepared at a concentration of 1 and 0.1 mcg/ml; the disks were allowed to air dry.” left out
# [6] = test system: Staphylococcus aureus UC 80 (SA); experiment: as above; conditions: 0.10 ml per disk
# Description: as §3, with “Paper disks (12.7 mm) were loaded with 0.10 ml of drug solution prepared at a concentration of 1 and 0.1 mcg/ml; the disks were allowed to air dry.” left out
# [7] = test system: Escherichia coli UC 51 (EC); experiment: as above; conditions: 0.10 ml per disk
# Description: as §3, with “Paper disks (12.7 mm) were loaded with 0.10 ml of drug solution prepared at a concentration of 1 and 0.1 mcg/ml; the disks were allowed to air dry.” left out
# [8] = test system: Klebsiella pneumoniae UC 57 (KP); experiment: Dip disk (disk-diffusion) assay, disks loaded with 0.05 ml; conditions: 0.05 ml per disk; for Growth Inhibition zone, KP: 0.1 mcg/ml; for zone of inhibition at 1 µg/mL: Klebsiella pneumoniae, UC57, 1.0 mcg/ml, read-out: Growth Inhibition zone, KP
# Description: as §1, with “Paper disks (12.7 mm) were loaded with 0.05 ml of drug solution prepared at a concentration of 0.1 mcg/ml; the disks were allowed to air dry.” left out, “millimeter. […]” for “millimeter.”
# [9] = test system: gram negative and positive; experiment: Compound 10 compared to ciprofloxacin, overall activity; conditions: compared with ciprofloxacin
Compound,"Growth Inhibition Zone, EC [1] [millimeter]","Growth Inhibition zone, PA [2] [millimeter]","Growth Inhibition Zone, SA [3] [millimeter]",gram negative and positive activity (in words) [4],"Growth Inhibition zone, PA [5] [mm]","Growth Inhibition Zone, SA ([6]; Conc 0.1 mg/ml) [mm]","Growth Inhibition Zone, SA ([6]; Conc 1 mg/ml) [mm]","Growth Inhibition Zone, EC ([7]; Conc 0.1 mg/ml) [mm]","Growth Inhibition Zone, EC ([7]; Conc 1 mg/ml) [mm]","Growth Inhibition zone, KP [8] [millimeter]",zone of inhibition at 1 µg/mL [1] [mm],zone of inhibition at 1 µg/mL [2] [mm],zone of inhibition at 1 µg/mL [3] [mm],zone of inhibition at 1 µg/mL [8] [mm],gram negative and positive activity (in words) [9]
"2-[4-(1-Cyclopropyl-3-carboxy-6,8-difluoro-1,4-dihydro-4-oxo-7-quinolinyl)-1-piperazinyl]2-butenedioic acid, dimethyl ester [Compound 1]",31,36,27,potent gram negative and positive activity as compared to the commercially available antibacterial Ciprofloxacin,35,25,28,30,35,31,–,–,–,–,–
"2-[4-(1-Ethyl-3-carboxy-6-fluoro-1,4-dihydro-4-oxo-7-quinolinyl)-1-piperizinyl]2-butanedioic acid, dimethyl ester [Compound 2]",23,25,21,potent gram negative and positive activity as compared to the commercially available antibacterial Ciprofloxacin,35,25,28,30,30,25,–,–,–,–,–
"COC(=O)/C=C(\C(=O)OC)N1CCN(c2c(F)cc3c(=O)c(C(=O)O)cn(C4CCC4)c3c2F)CC1 [Compound 6, 2-[4-(3-carboxy-1-cyclobutyl-6,8-difluuoro-1,4-dihydro-4-oxo-7-quinolinyl)-1-piperazinyl]-2-butenedioic acid (E)-1,4-dimethyl ester]",–,–,–,–,–,–,–,–,–,–,24,16,22,26,–
COC(=O)/C=C(\C(=O)OC)N1CCN(c2c(F)cc3c(=O)c(C(=O)O)cn(-c4ccc(F)cc4)c3c2F)CC1 [Compound 7],–,–,–,–,–,–,–,–,–,–,24,15,22,26,–
"COC(=O)/C=C(/NC1CCN(c2c(F)cc3c(=O)c(C(=O)O)cn(-c4ccc(F)cc4F)c3c2F)C1)C(=O)OC (stereo not shown) [Compound 8, 2-[4-(3-carboxy-1-benzene(2,4-difluoro)-1,4-dihydro-4-oxo-7-quinolinyl)-1-(3-aminopyrrolidinyl)]-2-butenedioic acid, (E)-1,4-dimethyl ester]",–,–,–,–,–,–,–,–,–,–,30,28,32,34,–
"COC(=O)/C=C(\C)NC1CCN(c2c(F)cc3c(=O)c(C(=O)O)cn(C4CC4)c3c2F)C1 (stereo not shown) [Compound 9, 2-[4-(3-carboxy-1-cyclopropyl-6,8-difluoro-1,4-dihydro-4-oxo-7-quinolinyl)-1-(3-aminopyrrolidinyl)]-3-butenoic acid-(E)-1-methyl ester]",–,–,–,–,–,–,–,–,–,–,24,32,23,26,–
"COC(=O)/C=C(/NC1CCN(c2c(F)cc3c(=O)c(C(=O)O)cn(C4CC4)c3c2F)C1)C(=O)OC (stereo not shown) [Compound 10, 2-[4-(3-carboxy-1-cyclopropyl-6,8-difluoro-1,4-dihydro-4-oxo-7-quinolinyl)-1-(3-aminopyrrolidinyl)]-2-butenedioic acid-(E)-1,4-dimethyl ester]",–,–,–,–,–,–,–,–,–,–,–,–,–,–,gram negative and positive activity greatly increased over that of ciprofloxacin
